From patent US20220152031A1, “PYRIDAZINONES AND METHODS OF USE THEREOF” (Goldfinch Bio, Inc., priority 2019, published 2022)

Target: T1, TRPC5 (Homo sapiens, UniProt Q9UL62)
T1 construct: expressed in transfected cells
T1 sequence (Q9UL62 1-973): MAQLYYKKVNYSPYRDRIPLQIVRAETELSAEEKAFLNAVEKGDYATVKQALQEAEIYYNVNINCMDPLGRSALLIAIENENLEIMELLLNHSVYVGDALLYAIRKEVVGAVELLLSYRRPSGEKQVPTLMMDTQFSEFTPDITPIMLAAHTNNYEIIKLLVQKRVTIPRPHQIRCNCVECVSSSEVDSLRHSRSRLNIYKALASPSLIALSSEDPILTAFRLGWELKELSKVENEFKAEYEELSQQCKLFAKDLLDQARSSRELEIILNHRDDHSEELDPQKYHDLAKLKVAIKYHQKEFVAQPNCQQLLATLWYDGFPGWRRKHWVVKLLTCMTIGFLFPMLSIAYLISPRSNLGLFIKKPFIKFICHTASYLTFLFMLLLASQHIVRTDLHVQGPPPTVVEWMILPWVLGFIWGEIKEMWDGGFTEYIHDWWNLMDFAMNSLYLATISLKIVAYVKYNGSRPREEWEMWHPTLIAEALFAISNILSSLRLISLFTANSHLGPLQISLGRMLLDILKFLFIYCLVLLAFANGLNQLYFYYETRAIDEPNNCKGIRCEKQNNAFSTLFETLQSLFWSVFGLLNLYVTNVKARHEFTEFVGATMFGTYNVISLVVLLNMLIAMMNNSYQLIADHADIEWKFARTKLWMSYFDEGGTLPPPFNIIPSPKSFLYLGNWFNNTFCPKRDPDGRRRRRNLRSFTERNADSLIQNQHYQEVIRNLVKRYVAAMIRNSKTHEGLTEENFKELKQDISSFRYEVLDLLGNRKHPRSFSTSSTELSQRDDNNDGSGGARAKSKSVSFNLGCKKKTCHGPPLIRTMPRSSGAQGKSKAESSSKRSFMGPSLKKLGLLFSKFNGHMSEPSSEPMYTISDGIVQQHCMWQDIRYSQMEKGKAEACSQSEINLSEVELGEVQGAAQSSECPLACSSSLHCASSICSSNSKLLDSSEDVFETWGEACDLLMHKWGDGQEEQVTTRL
Assay: TRPC5 activity assay (FLIPR calcium fluorescence, HEK-TREx hTRPC5 cells)
Type: cell-based
Conditions: Table 6, HEK-TREx hTRPC5; read-out: hTRPC5-FLIPR IC50
Protocol: ICLN-1633 cells (HEK-TREx hTRPC5) expressing TRPC5 were generated as follows. Commercially available HekTrex-293 cells were seeded at 0.7×10^6 cells/well in a 1×6-well plate 24 hrs prior to transfection using 2 mL cell growth media containing no antibiotics (lx DMEM/high glucose (Hyclone #SH30022.02); 10% fetal bovine serum (Sigma) 2 mM sodium pyruvate, 10 mM HEPES). […] On day 2, 2 μg of plasmid DNA plus 6 μl of Xtreme-GENE HP reagent in Optimem (200 μl total volume) was prepared and incubated for 15 min at room temperature. This plasmid solution was then gently overlayed dropwise onto each well and the plate was gently swirled to mix complex with the media for approximately 30 seconds. Transfected cells were incubated at 37° C. in a 10% CO2 incubator for 24 hrs. The transfected cells were harvested and transferred into 2×150 mm dishes containing cell growth media with no antibiotics at 37° C.
The next day selection was initiated to generate a stable pool by adding cell growth media containing 150 μg/mL Hygromycin and 5 μg/mL Blasticidin and cells were allowed to grow. Media with the selection agent was changed every 1-2 days as needed to remove dead cells. After 7 days, the hygromycin concentration was reduced to 75 μg/mL and cells growth was allowed to continue.
Single clones were selected as follows. The stable pool was diluted to 10 cells/mL and seeded (100 μl/well) into 24×96 well plates (˜1 cell/well) and allowed to grow for 7 days in cell growth media. Fresh media (100 μl) was added and the cells allowed to grow for another 1-2 weeks and then stored frozen or used immediately.
10-point dose response curves were generated using the Echo-550 acoustic dispenser. Compound source plates were made by serially diluting compound stocks to create 10 mM, 1 mM, and 0.1 mM solutions in DMSO into Echo certified LDV plates. The Echo then serially spotted 100% DMSO stock solutions into source dose response plates to generate a 4-fold dilution scheme. 100% DMSO was added to the spotted dose response plates to bring the final volume to 5 μl. 300 nl of the dose response stock plate was then spotted into pre-incubation and stimulation assay plates. 50 μl of pre-incubation buffer and 100 μl of stimulation buffer was then added to the plates resulting in a final assay test concentration range of 30 μM to 0.0001 μM with a final DMSO concentration of 0.3%.
Human ICLN-1633 cells expressing were plated onto 384 well, black PDL-coated microplates and maintained in TRPC5 growth media the day prior to use for experiments. TRPC5 expression was induced by the application of 1 μg/mL tetracycline at the time of plating. […] Cells are incubated at room temperature, protected from light, for 60-90 minutes. After the incubation period, the dye is removed and replaced with 10 μl of EBSS. Cell, pre-incubation and stimulation plates are loaded onto the FLIPR-II and the assay is initiated. The FLIPR measures a 10 second baseline and then adds 10 μl of 2× compounds (or controls). Changes in fluorescence are monitored for an additional 5 minutes. After the 5 minute pre-incubation, 20 μl of 2× Riluzole (with 1× compound or controls) is added to the cell plate. The final Riluzole stimulation concentration in the assay is 30 μM. After the Riluzole addition, changes in fluorescence are monitored for an additional 5 minutes.
Compound modulation of TRPC5 calcium response was determined as follows. After the Englerin A, fluorescence was monitored for a 5-minute period. The maximum relative fluorescence response (minus the control response of 1 μM of an internal control compound known to maximally block TRPC5 calcium response, the “REF INHIB” in the formula below) was captured and exported from the FLIPR.
Compound effect is calculated as % inhibition using the following formula: […]
wherein “RFU” is the relative fluorescent units.

IC50, 0.01 to 1000 nM:
CC(c1ccc(F)cc1C(F)(F)F)N1CCN(c2cn[nH]c(=O)c2Cl)CC1=O (single isomer, unassigned) [MF]
CCc1ncccc1N(CC)C1CCN(c2cn[nH]c(=O)c2Cl)CC1 [LW, 4-chloro-5-[4-[ethyl(2-ethylpyridin-3-yl)amino]piperidin-1-yl]-2,3-dihydropyridazin-3-one]
CCc1ncccc1[C@H](C)N1CCN(c2cn[nH]c(=O)c2Cl)CC1 [LY, 4-chloro-5-[4-[(1S)-1-(2-ethylpyridin-3-yl)ethyl]piperazin-1-yl]-2,3-dihydropyridazin-3-one]

Same assay, conditions: Table 7, HEK-TREx hTRPC5; read-out: TRPC5-FLIPR IC50

IC50, 0.01 to 1000 nM:
C[C@@H]1Cc2c(nnn2[C@H](C)c2ccccc2C(F)(F)F)CN1c1cn[nH]c(=O)c1Cl [MX, 4-chloro-5-[(6R)-6-methyl-1-[(1R)-1-[2-(trifluoromethyl)phenyl]ethyl]-1H,4H,5H,6H,7H-[1,2,3]triazolo[4,5-c]pyridin-5-yl]-2,3-dihydropyridazin-3-one]
CN1CCN(C(=O)c2nn(Cc3ccccc3C(F)F)c3c2CN(c2cn[nH]c(=O)c2Cl)CC3)CC1 [OM]
NC(=O)c1nn(Cc2ccccc2C(F)(F)F)c2c1CN(c1cn[nH]c(=O)c1Cl)CC2 [OP, 5-(5-Chloro-6-oxo-1,6-dihydropyridazin-4-yl)-1-[[2-(trifluoromethyl)phenyl]methyl]-1H,4H,5H,6H,7H-pyrazolo[4,3-c]pyridine-3-carboxamide]
CN1CCN(Cc2nn(Cc3ccccc3C(F)F)c3c2CN(c2cn[nH]c(=O)c2Cl)CC3)CC1 [OU, 4-Chloro-5-(1-[[2-(difluoromethyl)phenyl]methyl]-3-[(4-methylpiperazin-1-yl)methyl]-1H,4H,5H,6H,7H-pyrazolo[4,3-c]pyridin-5-yl)-2,3-dihydropyridazin-3-one]
CN(C)C(=O)c1nc2c(n1Cc1ccccc1C(F)(F)F)CCN(c1cn[nH]c(=O)c1Cl)C2 [PW]
CN(c1ncc2c(n1)CN(c1cn[nH]c(=O)c1Cl)C2)c1ccccc1C(F)(F)F [QM]
